From patent US8598183B2, “Solid state forms of a potent HCV inhibitor” (Boehringer Ingelheim International GmbH, priority 2010, dated 2013)

Assays:
[1] = target: HCV NS5B RNA-dependent RNA polymerase (Hepatitis C virus genotype 1a, UniProt P27958); settings: cited from earlier work
[2] = Solubility of Compound (1) in physiological pH range; thermodynamic solubility; type: physicochemical; settings: aqueous buffer, thermodynamic from solid; physiological pH range of 2-6.8
Experimental: Doses of Compound (1) up to 400 to 600 mg per dose may be required to be delivered to obtain exposures necessary for sufficient efficacy in vivo. Based on thermodynamic solubility of Compound (1), solubility of 0.005-0.01 mg/ml is estimated for Compound (1) sodium salt.

[3] = Powder dissolution testing in pH 6.8 buffer, USP Type II Paddle apparatus; type: physicochemical; settings: 60 minutes
[4] = Physical and chemical stability under accelerated storage conditions; type: physicochemical
Experimental: The glass transition temperature of the amorphous form of Compound (1) sodium salt is >200° C., which is quite atypical for pharmaceutical active materials and can be considered an unexpected finding.

HCV NS5B RNA-dependent RNA polymerase, sequence (P27958 2421-3011): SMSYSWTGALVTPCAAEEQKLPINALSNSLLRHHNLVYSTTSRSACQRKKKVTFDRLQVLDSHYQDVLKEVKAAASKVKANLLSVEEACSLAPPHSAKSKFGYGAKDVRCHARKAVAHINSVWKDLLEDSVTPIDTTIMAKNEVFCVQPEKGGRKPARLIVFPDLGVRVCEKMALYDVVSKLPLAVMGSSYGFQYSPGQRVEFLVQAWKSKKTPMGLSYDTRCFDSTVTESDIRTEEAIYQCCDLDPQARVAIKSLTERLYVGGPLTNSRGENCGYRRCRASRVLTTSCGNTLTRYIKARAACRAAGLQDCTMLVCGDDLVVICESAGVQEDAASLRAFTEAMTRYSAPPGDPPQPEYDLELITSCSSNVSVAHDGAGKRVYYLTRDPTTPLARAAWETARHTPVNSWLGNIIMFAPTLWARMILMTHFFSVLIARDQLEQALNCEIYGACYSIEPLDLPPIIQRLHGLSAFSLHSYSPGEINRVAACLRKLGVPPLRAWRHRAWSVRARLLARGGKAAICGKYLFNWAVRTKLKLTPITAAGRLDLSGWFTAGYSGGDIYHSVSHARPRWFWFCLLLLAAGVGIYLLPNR

Row | Compound | inhibition of HCV NS5B RNA-dependent RNA polymerase [1] | solubility [2] [µg/mL] | % dissolved (kinetic dissolution) [3] | physical and chemical stability [4]
1 | Cn1c(C2(NC(=O)c3ccc4c(C5CCCC5)c(-c5ncc(Br)cn5)n(C)c4c3)CCC2)nc2ccc(/C=C/C(=O)O)cc21 [Compound (1), (E)-3-[2-(1-{[2-(5-Bromo-pyrimidin-2-yl)-3-cyclopentyl-1-methyl-1H-indole-6-carbonyl]-amino}-cyclobutyl)-3-methyl-3H-benzimidazol-5-yl]-acrylic acid] | selective and potent inhibitor | < 0.2 | – | –
2 | Cn1c(C2(NC(=O)c3ccc4c(C5CCCC5)c(-c5ncc(Br)cn5)n(C)c4c3)CCC2)nc2ccc(/C=C/C(=O)[O-])cc21.[Na+] [amorphous Compound (1) sodium salt] | – | – | about 35% | acceptable physical and chemical stability
